This test has as its target T1, endogenous PIP4K2C C-terminally tagged with HiBiT peptide in MOLT-4 cells (Homo sapiens, UniProt Q8TBX8).
T1 construct: to C-terminally tag endogenous PIP4K2C with HiBiT peptide; host or cells: MOLT-4 (CRISPR-Cas9 knock-in clone)
T1 sequence (Q8TBX8 1-421): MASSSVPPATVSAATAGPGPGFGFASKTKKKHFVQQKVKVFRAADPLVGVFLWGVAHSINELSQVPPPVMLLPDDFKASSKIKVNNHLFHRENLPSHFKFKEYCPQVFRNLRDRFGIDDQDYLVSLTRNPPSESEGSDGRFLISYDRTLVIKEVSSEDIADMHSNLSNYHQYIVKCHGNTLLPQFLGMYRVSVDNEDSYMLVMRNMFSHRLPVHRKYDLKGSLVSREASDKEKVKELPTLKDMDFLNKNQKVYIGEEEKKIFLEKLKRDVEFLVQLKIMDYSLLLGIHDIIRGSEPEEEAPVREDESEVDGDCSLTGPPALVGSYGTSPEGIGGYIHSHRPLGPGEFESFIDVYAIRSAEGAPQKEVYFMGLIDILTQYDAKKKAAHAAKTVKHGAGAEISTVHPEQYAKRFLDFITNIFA
Kind of test: HiBiT PIP4K2C degradation assay in MOLT-4 cells. The test is classed as cell-based. The conditions noted are these: 24 hours, 10-point dose response, top concentration 10 micromolar, read-out: HiBIT-degradation MOLT4 PIP4k2C 24 hours DC50. The gist of the method: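 Cells bearing C-terminal HiBiT knock-in were exposed to a 10-point, 3-fold dilution series (top 10 micromolar, duplicate) for 24 h at 37C, 5% CO2. Remaining tagged protein read by lytic HiBiT luminescence; DC50 from Hill-equation fit.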
For orientation: With HiBiT, luminescence reflects the tagged protein that the partner subunit can reach.
For the compound `Cn1c(=O)n(C2CCC(=O)NC2=O)c2ccc(C3CCN(CC(=O)N4CCC(C(=O)Nc5cncc(Nc6ncc(Cl)c(-c7cccc(C8CC8)c7)n6)c5)CC4)CC3)cc21` (stereo not drawn) [Compound 210, N-(5-((5-chloro-4-(3-cyclopropylphenyl)pyrimidin-2-yl)amino)pyridin-3-yl)-1-(2-(4-(1-(2,6-dioxopiperidin-3-yl)-3-methyl-2-oxo-2,3-dihydro-1H-benzo[d]imidazol-5-yl)piperidin-1-yl)acetyl)piperidine-4-carboxamide], the DC50 (as a rule, the concentration giving 50% degradation) is under 500 nM.
As for `O=C1CCC(Nc2ccc(C3CCN(CCN4CCC5(CC4)CCN(c4cncc(Nc6ncc(Cl)c(-c7cccc(C8CC8)c7)n6)c4)C5=O)CC3)cc2)C(=O)N1` (stereo not drawn) [Compound 211, 3-((4-(1-(2-(2-(5-((5-chloro-4-(3-cyclopropylphenyl)pyrimidin-2-yl)amino)pyridin-3-yl)-1-oxo-2,8-diazaspiro[4.5]decan-8-yl)ethyl)piperidin-4-yl)phenyl)amino)piperidine-2,6-dione], the DC50 is under 500 nM.
The figure for `O=C1CCC(Nc2ccc(N3CCC(CN4CCC5(CC4)CCN(c4cncc(Nc6ncc(Cl)c(N7CCCC(C8CC8)C7)n6)c4)C5=O)CC3)cc2)C(=O)N1` (stereo not drawn) [Compound 212, 3-((4-(4-((2-(5-((5-chloro-4-(3-cyclopropylpiperidin-1-yl)pyrimidin-2-yl)amino)pyridin-3-yl)-1-oxo-2,8-diazaspiro[4.5]decan-8-yl)methyl)piperidin-1-yl)phenyl)amino)piperidine-2,6-dione] is under 500 nM.
